Test results as given in patent publication US8119647B2, “Fused pyrimidineone compounds as TRPV3 modulators” (Glenmark Pharmaceuticals S.A., priority 2008, dated 2012).
pIC50: −log10 of the molar value.

Target: T1, Human TRPV3 (Homo sapiens, UniProt Q8NET8)
T1 construct: expressed in transfected cells; host or cells: CHO cells (G-418 selection)
T1 sequence (Q8NET8 1-790): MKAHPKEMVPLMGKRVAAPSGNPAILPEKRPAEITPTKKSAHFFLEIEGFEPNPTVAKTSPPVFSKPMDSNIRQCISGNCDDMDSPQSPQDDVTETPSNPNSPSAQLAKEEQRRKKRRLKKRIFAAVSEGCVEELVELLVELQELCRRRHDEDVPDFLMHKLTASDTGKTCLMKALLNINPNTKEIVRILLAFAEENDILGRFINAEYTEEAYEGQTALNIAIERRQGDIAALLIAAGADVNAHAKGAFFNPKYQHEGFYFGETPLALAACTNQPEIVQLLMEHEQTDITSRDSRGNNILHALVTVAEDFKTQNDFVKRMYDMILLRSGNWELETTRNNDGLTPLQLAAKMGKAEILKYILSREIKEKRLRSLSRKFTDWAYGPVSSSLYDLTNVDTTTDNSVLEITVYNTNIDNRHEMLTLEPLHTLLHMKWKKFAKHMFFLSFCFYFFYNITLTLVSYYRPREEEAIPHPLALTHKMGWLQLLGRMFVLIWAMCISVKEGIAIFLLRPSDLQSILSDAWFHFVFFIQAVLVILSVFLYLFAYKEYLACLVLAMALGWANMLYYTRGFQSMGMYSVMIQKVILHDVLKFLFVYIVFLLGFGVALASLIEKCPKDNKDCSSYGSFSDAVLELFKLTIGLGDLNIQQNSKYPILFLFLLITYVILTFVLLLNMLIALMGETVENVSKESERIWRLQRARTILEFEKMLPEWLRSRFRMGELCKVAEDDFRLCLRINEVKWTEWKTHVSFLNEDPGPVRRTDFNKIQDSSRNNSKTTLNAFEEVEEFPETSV
Assay: Screening for TRPV3 antagonist using the 45Calcium uptake assay (inhibition of 2-APB induced cellular uptake of radioactive calcium)
Assay type: cell-based
Conditions: human TRPV3 expressing CHO cells, 2-APB 500 μM; for Percentage inhibition at 1.0 μM / inhibition at 1 µM: 1.0 μM test compound; for Percentage inhibition at 10.0 μM / inhibition at 10 µM: 10.0 μM test compound; for inhibition at 1 µM: read-out: Percentage inhibition at 1.0 μM; for inhibition at 10 µM: read-out: Percentage inhibition at 10.0 μM; for pIC50: class symbols
Summary of the method: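 CHO cells stably expressing human TRPV3, preincubated 10 min with test compound, then 2-APB (500 μM final) plus 5 μCi/ml 45Ca2+ for 4 min in DMEM/F-12 with 1.8 mM CaCl2; 0.5% DMSO final. Lysate radioactivity by scintillation counting. IC50 by nonlinear regression of % maximal response; % inhibition at 1.0 and 10.0 μM.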

Row | SMILES | inhibition at 1 µM | inhibition at 10 µM | pIC50 | Percentage inhibition at 1.0 μM | Percentage inhibition at 10.0 μM
1 | CCOCCOc1cccc(/C=C/c2nc3sccn3c(=O)c2-c2ccc(OC(F)(F)F)cc2)c1OCC1CC1 [Example 62, 7-{(E)-2-[2-(Cyclopropylmethoxy)-3-(2-ethoxyethoxy)phenyl]-1-ethenyl}-6-(4-trifluoro-methoxyphenyl)-5H-[1,3]thiazolo[3,2-a]pyrimidin-5-one] |  |  |  | 30.6% | 55.9%
2 | CCOCCOc1c(/C=C/c2nc3sc4ccccc4n3c(=O)c2-c2ccc(C#N)cc2)cccc1OC [Example 85] | 81.8% | 91.9% | > 6.60 |  | 
3 | COc1cccc(/C=C/c2nc3sc(Cl)cn3c(=O)c2-c2ccc(N(C)C)cc2)c1OCC(C)C [Example 81, 2-Chloro-6-[4-(dimethylamino)phenyl]-7-[(E)-2-(2-isobutoxy-3-methoxyphenyl)vinyl]-5H-[1,3]thiazolo[3,2-a]pyrimidin-5-one] | 64.3% | 78.5% | 6.30 to 6.60 |  | 
4 | COCCOc1c(/C=C/c2nc3sc4ccccc4n3c(=O)c2-c2ccc(C#N)cc2)cccc1OC [Example 84, 4-(2-{(E)-2-[3-Methoxy-2-(methoxyethoxy)phenyl}-1-ethenyl}-4-oxo-4H-benzo[4,5]-[1,3]thiazolo-[3,2]pyrimidin-3-yl)benzonitrile] | 83.8% | 93.7% | 6.30 to 6.60 |  | 
5 | COc1cccc(/C=C/c2nc3sccn3c(=O)c2-c2ccc(F)nc2)c1OCC1CC1 [Example 3] |  |  |  | 20.1% | 89.3%
6 | CCCCOc1c(/C=C/c2nc3sccn3c(=O)c2-c2ccc(OC(F)(F)F)cc2)cccc1OC [Example 57, 7-[(E)-2-(2-Butoxy-3-methoxyphenyl)-1-ethenyl]-6-[4-(trifluoromethoxy)phenyl]-5H-[1,3]thiazolo[3,2-a]pyrimidin-5-one] | 79.4% | 91.9% | > 6.60 |  | 
7 | COCCOc1c(/C=C/c2nc3sccn3c(=O)c2-c2ccc(OC(F)(F)F)cc2)cccc1OC [Example 73, 7-[(E)-2-{3-Methoxy-2-(2-methoxyethoxy)phenyl}-1-ethenyl]-6-[4-(trifluoromethoxy)-phenyl]-5H-[1,3]thiazolo[3,2-a]pyrimidin-5-one] | 79.2% | 94.9% | 6.30 to 6.60 |  | 
8 | COc1cccc(/C=C/c2nc3sccn3c(=O)c2-c2ccc(OC(F)(F)F)cc2)c1OC1CCCCC1 [Example 72, 7-[(E)-2-(2-Cyclohexyloxy-3-methoxyphenyl)-1-ethenyl]-6-[4-(trifluoromethoxy)phenyl]-5H-[1,3]thiazolo[3,2-a]pyrimidin-5-one] | 58.1% | 82.1% | 6.30 to 6.60 |  | 
9 | COc1cccc(/C=C/c2nc3sccn3c(=O)c2-c2ccc(C#N)cc2)c1OCCCC#N [Example 22, 4-{7-[(E)-2-{2-(3-Cyanopropoxy)-3-(methoxyphenyl)-1-ethenyl]}-5-oxo-5H-[1,3]-thiazolo[3,2-a]pyrimidin-6-yl}benzonitrile] |  |  |  | 16.1% | 24.5%
10 | COc1cccc(/C=C/c2nc3sccn3c(=O)c2-c2ccc(C(C)=O)cc2)c1OCC1CC1 [Example 5] |  |  |  | 60.3% | 95.1%
11 | COc1cccc(/C=C/c2nc3sc(Cl)cn3c(=O)c2-c2ccc(C#N)cc2)c1OCC(C)(C)C [Example 80, 4-{2-Chloro-7-[(E)-2-(2-(2,2-dimethylpropoxy)-3-methoxyphenyl)vinyl]-5-oxo-5H-[1,3]thiazolo[3,2-a]pyrimidin-6-yl}benzonitrile] | 69.1% | 87.7% | 6.00 to 6.30 |  | 
12 | COc1cccc(/C=C/c2nc3sccn3c(=O)c2-c2ccc(OC(F)(F)F)cc2)c1OC1CCCC1 [Example 68] | 75.8% | 83.6% | > 6.60 |  | 
13 | COc1cccc(/C=C/c2nc3sccn3c(=O)c2-c2ccc(C#N)cc2)c1OCCC(C)C [Example 11, 4-{7-[(E)-2-(2-Isopentyloxy-3-methoxyphenyl)-1-ethenyl]-5-oxo-5H-[1,3]thiazolo[3,2-a]pyrimidin-6-yl}benzonitrile] | 76.2% | 90% | > 6.60 |  | 
14 | CCCCOc1c(/C=C/c2nc3sccn3c(=O)c2-c2ccc(C(F)(F)F)cc2)cccc1OC [Example 26, 7-[(E)-2-(2-Butoxy-3-methoxyphenyl)-1-ethenyl]-6-[4-(trifluoromethyl)phenyl]-5H-[1,3]thiazolo[3,2-a]pyrimidin-5-one] | 56.6% | 84.5% |  |  | 
15 | COc1cccc(/C=C/c2nc3sccn3c(=O)c2-c2ccccc2)c1OCC1CC1 [Example 2, 7-{(E)-2-[2-(Cyclopropylmethoxy)-3-methoxyphenyl]vinyl}-6-phenyl-5H-[1,3]thiazolo[3,2-a]pyrimidin-5-one] | 10.4% | 73.1% | 5.00 to 6.00 |  | 

More lines, main results first:

Row | inhibition at 1 µM | inhibition at 10 µM | pIC50 | SMILES | Percentage inhibition at 1.0 μM | Percentage inhibition at 10.0 μM
16 | 66.9% | 97.2% | 6.30 to 6.60 | COCCOc1c(/C=C/c2nc3sccn3c(=O)c2-c2ccc(C(F)(F)F)cc2)cccc1OC [Example 31, {7-[(E)-2-(2-Methoxyethoxy-3-methoxy)phenyl}vinyl]-6-[4-(trifluoromethyl)phenyl]-5H-[1,3]thiazolo[3,2-a]pyrimidin-5-one] |  | 
17 | 36.3% | 67.4% |  | O=c1c(-c2ccc(C(F)(F)F)cc2)c(/C=C/c2ccccc2OCC2CC2)nc2sccn12 [Example 24] |  | 
18 | 86.5% | 93.7% | > 6.60 | COc1cccc(/C=C/c2nc3sccn3c(=O)c2-c2ccc(C(F)(F)F)cc2)c1OCC(C)(C)C [Example 29, 7-[(E)-2-(3-Methoxy-2-neopentyloxy)phenyl-1-ethenyl]-6-(4-(trifluoromethyl)phenyl)-5H-[1,3]thiazolo[3,2-a]pyrimidin-5-one] |  | 
19 | 39.6% | 88.1% |  | COc1ccc(/C=C/c2nc3sccn3c(=O)c2-c2ccc(C(F)(F)F)cc2)cc1OCC1CC1 [Example 37, 7-[(E)-2-(3-Cyclopropylmethoxy-4-methoxyphenyl)-1-ethenyl]-6-[4-(trifluoromethyl)-phenyl]-5H-[1,3]thiazolo[3,2-a]pyrimidin-5-one] |  | 
20 | 43.1% | 78.4% |  | COc1cccc(/C=C/c2nc3sccn3c(=O)c2-c2ccc(C(F)(F)F)cc2)c1OCC1CCC1 [Example 34, 7-[(E)-2-(2-Cyclobutylmethoxy-3-methoxyphenyl)-1-ethenyl]-6-[4-(trifluoromethyl)phenyl]-5H-[1,3]thiazolo[3,2-a]pyrimidin-5-one] |  | 
21 | 63.4% | 94% | 6.00 to 6.30 | COc1ccc(-c2c(/C=C/c3cccc(OC)c3OCC3CC3)nc3sccn3c2=O)cc1 [Example 43, 7-[(E)-2-(2-Cyclopropylmethoxy-3-methoxyphenyl)-1-ethenyl]-6-(4-methoxy-phenyl)-5H-[1,3]thiazolo[3,2-a]pyrimidin-5-one] |  | 
22 | 16.3% | 21.1% |  | O=c1c(-c2ccc(OC(F)(F)F)cc2)c(/C=C/c2cccc(OCC3CC3)c2OCC2CC2)nc2sccn12 [Example 64, 7-{(E)-2-[2-(Cyclopropylmethoxy)-3-(cyclopropylmethoxy)phenyl]-1-ethenyl}-6-(4-trifluoromethoxyphenyl)-5H-[1,3]thiazolo[3,2-a]pyrimidin-5-one] |  | 
23 | 59.7% | 85.3% |  | COc1cccc(/C=C/c2nc3sccn3c(=O)c2-c2ccc(C(F)(F)F)cc2)c1OCCC(C)C [Example 28, 7-[(E)-2-(2-Isopentyloxy-3-methoxyphenyl)-1-ethenyl]-6-[4-(trifluoromethyl)phenyl]-5H-[1,3]thiazolo[3,2-a]pyrimidin-5-one] |  | 
24 | 76% | 95.3% | 6.30 to 6.60 | COc1cccc(/C=C/c2nc3sccn3c(=O)c2-c2ccc(N(C)C)cc2)c1OCC1CC1 [Example 6, 6-(4-Dimethylaminophenyl)-7-[(E)-2-(2-cyclopropylmethoxy-3-methoxyphenyl]-1-ethenyl]-5H-[1,3]thiazolo[3,2-a]pyrimidin-5-one] |  | 
25 | 29.4% | 68.5% |  | COc1cccc(/C=C/c2nc3sccn3c(=O)c2-c2ccc(C(F)(F)F)cc2)c1OC1CCCC1 [Example 35, 7-[(E)-2-(2-Cyclopentyloxy-3-methoxyphenyl)-1-ethenyl]-6-[4-(trifluoromethyl)phenyl]-5H-[1,3]thiazolo[3,2-a]pyrimidin-5-one] |  | 
